According to US20230089867A1, “CYCLIC PENTAMER COMPOUNDS AS PROPROTEIN CONVERTASE SUBTILISIN/KEXIN TYPE 9 (PCSK9) INHIBITORS FOR THE TREATMENT OF METABOLIC DISORDER” (Novartis AG, priority 2018, published 2023):

Target: human PCSK9 (Homo sapiens, UniProt Q8NBP7)
Test: PCSK9 ligand binding TR-FRET assay (interference with binding of human PCSK9 to human LDLR)
Conditions: for Max % inhibition: PCSK9 FRET assay, efficacy (Amax), 100% = 1 uM unlabeled human PCSK9, 0% = DMSO; for IC50: TR-FRET, human PCSK9 Alexa Fluor 647 / human LDLR extracellular domain-Europium Kryptate, read-out: PCSK9 FRET Assay IC50
Outline: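 Threefold compound dilutions were pre-incubated 30 min with PCSK9, after which 4 nM Europium Kryptate-tagged human LDLR ectodomain was added for a further 2 h.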

Sequence of human PCSK9 (Q8NBP7 153-692): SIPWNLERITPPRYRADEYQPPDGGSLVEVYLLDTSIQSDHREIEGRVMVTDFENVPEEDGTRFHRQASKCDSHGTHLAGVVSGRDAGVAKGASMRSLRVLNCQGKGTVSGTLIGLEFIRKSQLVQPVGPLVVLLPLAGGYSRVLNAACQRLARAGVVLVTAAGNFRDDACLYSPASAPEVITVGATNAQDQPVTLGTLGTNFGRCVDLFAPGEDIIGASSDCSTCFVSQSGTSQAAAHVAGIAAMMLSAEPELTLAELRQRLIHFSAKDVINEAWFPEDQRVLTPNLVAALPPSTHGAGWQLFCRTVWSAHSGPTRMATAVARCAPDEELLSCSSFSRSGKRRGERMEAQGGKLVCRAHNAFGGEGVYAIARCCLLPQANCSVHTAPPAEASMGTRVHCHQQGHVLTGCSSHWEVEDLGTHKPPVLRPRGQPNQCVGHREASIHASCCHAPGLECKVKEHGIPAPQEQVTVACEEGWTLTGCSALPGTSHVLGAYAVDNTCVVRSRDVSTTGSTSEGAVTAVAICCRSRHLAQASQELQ
Sequence of human PCSK9 (Q8NBP7 31-152 partner limits assumed): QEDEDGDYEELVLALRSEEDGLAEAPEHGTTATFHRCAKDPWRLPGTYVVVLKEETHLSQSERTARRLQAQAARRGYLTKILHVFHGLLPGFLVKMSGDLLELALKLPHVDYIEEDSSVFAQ

| SMILES | Max % inhibition | IC50 |
| --- | --- | --- |
| COC[C@H]1C(=O)N[C@@H](CO)C(=O)N(C)[C@@H](Cc2ccc(Cl)cc2)CC(=O)NC[C@H](C)N(C)C(=O)CCC(=O)N1Cc1ccccc1Oc1ccc(-c2cnc(CN(C)C)n2C)cc1 [Compound 200, (2S,5S,8S,13S)-8-(4-chlorobenzyl)-1-(2-(4-(2-((dimethylamino)methyl)-1-methyl-1H-imidazol-5-yl)phenoxy)benzyl)-5-(hydroxymethyl)-2-(methoxymethyl)-7,13,14-trimethyl-1,4,7,11,14-pentaazacyclooctadecane-3,6,10,15,18-pentaone] | 93.78% | 65.4 nM |
| COC[C@@H]1NC(=O)[C@H](C)N(Cc2ccc(Cl)cc2Oc2ccc(-c3cnc(CN(C)C)n3C)cc2)C(=O)CC2(CC2)C(=O)N(C)[C@@H](C)CNC(=O)C[C@H](Cc2ccc(Cl)cc2)N(C)C1=O [Compound 201, (6S,11S,14S,17S)-18-(4-chloro-2-(4-(2-((dimethylamino)methyl)-1-methyl-1H-imidazol-5-yl)phenoxy)benzyl)-11-(4-chlorobenzyl)-14-(methoxymethyl)-5,6,12,17-tetramethyl-5,8,12,15,18-pentaazaspiro[2.17]icosane-4,9,13,16,19-pentaone] | 72.22% | 441 nM |
| COC[C@@H]1NC(=O)[C@H](C)N(Cc2ccc(Cl)cc2Oc2ccc(-c3cnc(CN(C)C)n3C)cc2)C(=O)CCC(=O)N(C)[C@H]2CCCC[C@@H]2NC(=O)C[C@H](Cc2ccc(Cl)cc2)N(C)C1=O [Compound 202, (4S,7S,10S,16aS,20aS)-11-(4-chloro-2-(4-(2-((dimethylamino)methyl)-1-methyl-1H-imidazol-5-yl)phenoxy)benzyl)-4-(4-chlorobenzyl)-7-(methoxymethyl)-5,10,16-trimethylhexadecahydrobenzo[l][1,4,7,11,14]pentaazacyclooctadecine-2,6,9,12,15(3H)-pentaone] | 95.27% | 2.9 nM |
| COC[C@@H]1NC(=O)[C@H](C)N(Cc2ccc(Cl)cc2Oc2ccc(-c3cnc(CN4CCCC4)n3C)cc2)C(=O)C[C@@H](Cc2ccccc2)C(=O)N(C)[C@H]2CCCC[C@@H]2NC(=O)C[C@H](Cc2ccc(Cl)cc2)N(C)C1=O [Compound 203, (4S,7S,10S,14R,16aS,20aS)-14-benzyl-11-(4-chloro-2-(4-(1-methyl-2-(pyrrolidin-1-ylmethyl)-1H-imidazol-5-yl)phenoxy)benzyl)-4-(4-chlorobenzyl)-7-(methoxymethyl)-5,10,16-trimethylhexadecahydrobenzo[l][1,4,7,11,14]pentaazacyclooctadecine-2,6,9,12,15(3H)-pentaone] | 90.79% | 2 nM |
| COC[C@@H]1NC(=O)[C@H](C)N(Cc2ccc(Cl)cc2Oc2ccc(-c3cnc(CN4CCOCC4)n3C)cc2)C(=O)C[C@@H](Cc2ccccc2)C(=O)N(C)[C@@H](C)CNC(=O)C[C@H](Cc2ccc(Cl)cc2)N(C)C1=O [Compound 205, (2S,5S,8S,13S,16R)-16-benzyl-1-(4-chloro-2-(4-(1-methyl-2-(morpholinomethyl)-1H-imidazol-5-yl)phenoxy)benzyl)-8-(4-chlorobenzyl)-5-(methoxymethyl)-2,7,13,14-tetramethyl-1,4,7,11,14-pentaazacyclooctadecane-3,6,10,15,18-pentaone] | 93.20% | 2 nM |
| COC[C@@H]1NC(=O)[C@H](C)N(Cc2ccc(Cl)cc2Oc2ccc(-c3cnc(CN4CCCC4)n3C)cc2)C(=O)C[C@@H](Cc2cccc(OC(F)(F)F)c2)C(=O)N(C)[C@@H](C)CNC(=O)C[C@H](Cc2ccc(Cl)cc2)N(C)C1=O [Compound 206, (2S,5S,8S,13S,16R)-1-(4-chloro-2-(4-(1-methyl-2-(pyrrolidin-1-ylmethyl)-1H-imidazol-5-yl)phenoxy)benzyl)-8-(4-chlorobenzyl)-5-(methoxymethyl)-2,7,13,14-tetramethyl-16-(3-(trifluoromethoxy)benzyl)-1,4,7,11,14-pentaazacyclooctadecane-3,6,10,15,18-pentaone] | 99.72% | 5.8 nM |
